Assay: Retinal concentration of angiostatic steroid after sub-Tenon drug depot in rabbit eyes
Assay type: in vivo
Conditions: drug depot on outer surface of sclera, slightly posterior of the equator, measured the day after the injection, New Zealand White rabbits
Description: Sclera 16 and Tenon's capsule 34 define the exterior surface of the globe of eye 10. For treatment of ARMD, CNV, retinopathies, retinitis, uveitis, cystoid macular edema (CME), glaucoma, and other diseases or conditions of posterior segment 26, it is preferable to dispose a depot 38 of a specific quantity of an ophthalmically acceptable pharmaceutically active agent directly on the outer surface of sclera 16 and below Tenon's capsule 34. In addition, in cases of ARMD and CME it is most preferable to dispose depot 38 directly on the outer surface of sclera 16, below Tenon's capsule 34, and generally above macula 30. In a study using New Zealand White rabbits, a drug depot of 4,9(11)-Pregnadien-17α,21-diol-3,20-dione-21-acetate, an angiostatic steroid available from Steraloids, Inc. of Wilton, New Hampshire, was disposed directly on the outer surface of the sclera, below the Tenon's capsule, and slightly posterior of the equator of the rabbit eyes. […] Given the fact that the Tenon's capsule of a New Zealand White rabbit is very thin, these beneficial results are highly unexpected. It is important to note that Tenon's capsule 34 of human eye 10 is also very thin. […]

## CC(=O)OCC(=O)[C@@]1(O)CC[C@H]2[C@@H]3CCC4=CC(=O)CC[C@]4(C)C3=CC[C@@]21C [4,9(11)-Pregnadien-17α,21-diol-3,20-dione-21-acetate]
  concentration of the angiostatic steroid, averaged over the entire retina, relative to a depot located below the conjunctiva but above the Tenon's capsule: about ten times greater
